For eight compounds, IC50 results are on record in patent US11780830B2, “Triazolone derivatives or salts thereof and pharmaceutical compositions comprising the same” (YUHAN CORPORATION, priority 2018, dated 2023).

What all share (assay type): biochemical
One experiment deals with T1, recombinant human VAP-1 (Homo sapiens, UniProt Q16853).
T1 construct: purchased R&D systems
T1 sequence (Q16853 1-763): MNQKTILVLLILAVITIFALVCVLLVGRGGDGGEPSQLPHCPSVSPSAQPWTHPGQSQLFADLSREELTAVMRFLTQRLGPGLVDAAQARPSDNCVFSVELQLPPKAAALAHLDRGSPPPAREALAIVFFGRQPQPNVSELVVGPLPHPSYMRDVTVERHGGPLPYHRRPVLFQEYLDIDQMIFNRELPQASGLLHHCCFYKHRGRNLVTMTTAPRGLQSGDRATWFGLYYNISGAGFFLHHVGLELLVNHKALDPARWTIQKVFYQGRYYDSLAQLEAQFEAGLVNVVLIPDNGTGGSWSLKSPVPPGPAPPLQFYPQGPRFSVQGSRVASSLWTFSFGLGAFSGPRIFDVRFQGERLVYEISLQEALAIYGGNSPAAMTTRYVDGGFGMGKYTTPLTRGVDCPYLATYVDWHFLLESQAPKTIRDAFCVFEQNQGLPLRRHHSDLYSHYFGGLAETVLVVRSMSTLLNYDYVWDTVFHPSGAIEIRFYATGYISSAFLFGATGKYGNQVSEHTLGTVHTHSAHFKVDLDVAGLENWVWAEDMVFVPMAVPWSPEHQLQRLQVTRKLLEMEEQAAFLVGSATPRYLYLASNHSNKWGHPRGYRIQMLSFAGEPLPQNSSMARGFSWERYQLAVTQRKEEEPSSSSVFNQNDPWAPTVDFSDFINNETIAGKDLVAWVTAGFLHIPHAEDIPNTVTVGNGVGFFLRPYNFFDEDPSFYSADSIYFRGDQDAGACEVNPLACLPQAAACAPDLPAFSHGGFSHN
Briefly: Activity on recombinant human VAP-1, HRP-coupled Amplex Red hydrogen peroxide assay. The conditions noted are these: substrate 1 mM benzylamine; compound incubated with enzyme at 37° C. for 30 minutes; pH 7.4; read-out: Inhibitory Activity (IC50, nM) human VAP-1. In short, it runs like this: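 Fluorescence of resorufin formed from H2O2 (ex 544 nm, em 590 nm) was tracked for 1-2 h after adding 1 mM benzylamine, 200 uM Amplex Red and 1 U/mL HRP to enzyme pretreated with compound for 30 min at 37 °C. IC50 values derive from four-variable logistic fits.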

The target in experiment [1] is T2, recombinant human MAO-B (monoamine oxidase-B) (Homo sapiens, UniProt P27338).
T2 construct: purchased Sigma-Aldrich
T2 sequence (P27338 1-520): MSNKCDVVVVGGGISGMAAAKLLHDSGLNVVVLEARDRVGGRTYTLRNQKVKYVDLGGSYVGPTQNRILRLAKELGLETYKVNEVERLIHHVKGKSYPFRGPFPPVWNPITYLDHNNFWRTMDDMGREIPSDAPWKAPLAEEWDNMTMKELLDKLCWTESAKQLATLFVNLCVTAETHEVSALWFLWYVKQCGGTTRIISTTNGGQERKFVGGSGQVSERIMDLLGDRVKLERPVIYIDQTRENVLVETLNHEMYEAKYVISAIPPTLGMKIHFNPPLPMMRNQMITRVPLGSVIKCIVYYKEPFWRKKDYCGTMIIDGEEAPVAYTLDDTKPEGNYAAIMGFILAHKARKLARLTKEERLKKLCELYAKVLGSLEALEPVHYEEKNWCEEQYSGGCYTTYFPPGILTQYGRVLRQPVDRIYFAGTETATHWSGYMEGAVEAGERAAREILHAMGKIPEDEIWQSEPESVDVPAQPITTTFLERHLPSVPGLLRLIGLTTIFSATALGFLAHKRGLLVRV
The experiment in a line: Activity on recombinant human MAO-B, method similar to the VAP-1 assay. The conditions noted are these: substrate 1 mM benzylamine; read-out: Inhibitory Activity (IC50, nM) MAO-B. In short, it runs like this: (§1)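 Fluorescence (544/590 nm) of resorufin formed from Amplex Red by HRP and enzyme-generated H2O2 was followed over 1-2 h. Substrates were 0.5 mM tyramine for MAO-A and 1 mM benzylamine for MAO-B; compounds were preincubated with enzyme for 30 min at 37° C. IC50 came from four-parameter logistic fitting of signal-rate inhibition.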

For experiment [2], the target named is T3, recombinant human DAO (diamine oxidase) (Homo sapiens, UniProt P19801).
T3 construct: purchased R&D systems
T3 sequence (P19801 20-751): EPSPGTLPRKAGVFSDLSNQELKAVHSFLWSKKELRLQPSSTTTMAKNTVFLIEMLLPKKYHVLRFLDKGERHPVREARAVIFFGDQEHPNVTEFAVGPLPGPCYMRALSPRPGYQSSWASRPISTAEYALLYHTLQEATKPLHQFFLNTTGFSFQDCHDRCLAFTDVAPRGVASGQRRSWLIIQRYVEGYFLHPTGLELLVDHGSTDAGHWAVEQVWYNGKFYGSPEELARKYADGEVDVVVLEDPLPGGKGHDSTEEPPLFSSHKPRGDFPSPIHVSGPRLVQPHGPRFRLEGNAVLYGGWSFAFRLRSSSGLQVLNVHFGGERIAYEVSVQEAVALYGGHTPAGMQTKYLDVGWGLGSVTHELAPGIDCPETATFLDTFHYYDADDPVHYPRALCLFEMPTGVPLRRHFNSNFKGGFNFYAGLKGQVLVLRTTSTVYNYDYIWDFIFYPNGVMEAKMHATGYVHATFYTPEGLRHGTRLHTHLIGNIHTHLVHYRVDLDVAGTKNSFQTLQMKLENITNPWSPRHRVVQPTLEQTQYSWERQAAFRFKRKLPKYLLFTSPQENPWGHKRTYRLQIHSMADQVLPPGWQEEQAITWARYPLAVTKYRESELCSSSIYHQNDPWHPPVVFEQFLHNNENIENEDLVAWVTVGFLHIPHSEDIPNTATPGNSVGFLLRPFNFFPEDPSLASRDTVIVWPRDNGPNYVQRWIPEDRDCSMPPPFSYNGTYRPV
Briefly: Activity on recombinant human DAO, method similar to the VAP-1 assay. Particulars: substrate 1 mM putrescine; read-out: Inhibitory Activity (IC50, nM) DAO. Put shortly: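 Inhibition of recombinant human diamine oxidase (DAO, R&D systems) was assessed by the same approach as the VAP-1 assay, using 1 mM putrescine as substrate. Hydrogen peroxide formed was detected through an HRP-coupled Amplex Red reaction yielding fluorescent resorufin, read at 544 nm excitation and 590 nm emission. IC50 values came from four-parameter logistic fitting in GraphPad Prism.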

Experiment [3] addresses T4, recombinant human MAO-A (monoamine oxidase-A) (Homo sapiens, UniProt P21397).
T4 construct: purchased Sigma-Aldrich
T4 sequence (P21397 1-527): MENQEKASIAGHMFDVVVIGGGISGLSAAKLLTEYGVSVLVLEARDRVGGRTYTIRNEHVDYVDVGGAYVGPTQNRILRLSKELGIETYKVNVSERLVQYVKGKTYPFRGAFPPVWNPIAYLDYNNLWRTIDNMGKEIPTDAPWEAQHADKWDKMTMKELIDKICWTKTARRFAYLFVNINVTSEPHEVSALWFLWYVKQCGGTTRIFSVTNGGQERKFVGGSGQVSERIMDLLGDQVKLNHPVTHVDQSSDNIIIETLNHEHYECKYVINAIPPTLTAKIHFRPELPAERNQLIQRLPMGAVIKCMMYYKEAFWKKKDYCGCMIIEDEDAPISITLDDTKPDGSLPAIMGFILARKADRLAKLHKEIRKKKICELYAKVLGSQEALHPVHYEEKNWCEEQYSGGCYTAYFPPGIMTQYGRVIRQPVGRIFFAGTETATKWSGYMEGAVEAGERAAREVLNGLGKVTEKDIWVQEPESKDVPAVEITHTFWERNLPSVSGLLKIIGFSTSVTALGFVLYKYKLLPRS
Briefly: Activity on recombinant human MAO-A, method similar to the VAP-1 assay. The conditions noted are these: substrate 0.5 mM tyramine; read-out: Inhibitory Activity (IC50, nM) MAO-A. Put shortly: as §1

The structures appear in SMILES notation. Counter-ions that a name gives are not always drawn.

The IC50 is the midpoint of a concentration-inhibition curve. In the case of `NC/C(=C\F)Cn1ncn(Cc2ccc(-c3ccc4c(c3)CCC(=O)N4)s2)c1=O` [Example 75, 6-[5-(1-[(2E)-2-(aminomethyl)-3-fluoroprop-2-en-1-yl]-5-oxo-1,5-dihydro-4H-1,2,4-triazol-4-ylmethyl)thiophen-2-yl]-3,4-dihydroquinolin-2(1H)-one hydrochloride], the concentration for half-maximal inhibition (IC50) at recombinant human VAP-1 is 0.3 nM; in experiment [1] it was 2600 nM; in experiment [2], 950 nM; in experiment [3], > 100000 nM.

Turning to `NC/C(=C\F)Cn1ncn(Cc2cc3cc(-c4ccc(N5CCNCC5)cc4)ccc3s2)c1=O` [Example 213, 2-[(2E)-2-(aminomethyl)-3-fluoroprop-2-en-1-yl]-4-({5-[4-(piperazin-1-yl)phenyl]-1-benzothiophen-2-yl}methyl)-2,4-dihydro-3H-1,2,4-triazol-3-one], the IC50 is 3 nM at recombinant human VAP-1, 5200 nM in experiment [1], 1500 nM in experiment [2] and > 100000 nM in experiment [3].

Regarding `CC1Oc2ccc(-c3ccc(Cn4cnn(C/C(=C/F)CN)c4=O)s3)cc2NC1=O` (centres unmarked) [Example 97, 6-[5-[[1-[(E)-2-(aminomethyl)-3-fluoro-allyl]-5-oxo-1,2,4-triazol-4-yl]methyl]-2-thienyl]-2-methyl-4H-1,4-benzoxazin-3-one hydrochloride], the IC50 on recombinant human VAP-1 turned out to be 0.4 nM; in experiment [1], 380 nM; in experiment [2] it was 230 nM; in experiment [3], 28000 nM.

Take `NC/C(=C\F)Cn1ncn(CCc2ccc(-c3ccc4c(c3)OCO4)s2)c1=O` [Example 215, 2-[(2E)-2-(aminomethyl)-3-fluoroprop-2-en-1-yl]-4-{2-[5-(1,3-benzodioxol-5-yl)thiophen-2-yl]ethyl}-2,4-dihydro-3H-1,2,4-triazol-3-one]: the IC50 is 1.3 nM at recombinant human VAP-1, 310 nM in experiment [1], 380 nM in experiment [2] and > 100000 nM in experiment [3].

With `NC/C(=C\F)Cn1ncn(Cc2ccc(-c3cn[nH]c3)s2)c1=O` [Example 152, 2-[(2E)-2-(aminomethyl)-3-fluoroprop-2-en-1-yl]-4-{[5-(1H-pyrazol-4-yl)thiophen-2-yl]methyl}-2,4-dihydro-3H-1,2,4-triazol-3-one], the IC50 at recombinant human VAP-1 turned out to be 4.9 nM; in experiment [1] it was 3500 nM; in experiment [2], 4400 nM; in experiment [3] it was 13000 nM.

Take `Cc1c(-c2ccc(Cn3cnn(C/C(=C/F)CN)c3=O)s2)ccc2c1NC(=O)CC2` [Example 88, 7-[5-[[1-[(E)-2-(aminomethyl)-3-fluoro-allyl]-5-oxo-1,2,4-triazol-4-yl]methyl]-2-thienyl]-8-methyl-3,4-dihydro-1H-quinolin-2-one]: the 50% inhibitory concentration (IC50) at recombinant human VAP-1 was 0.3 nM; in experiment [1], 2400 nM; in experiment [2], 897 nM; in experiment [3], > 100000 nM.

Regarding `Cn1cncc1C#Cc1ccc(Cn2cnn(C/C(=C/F)CN)c2=O)s1` [Example 130, 2-[(2E)-2-(aminomethyl)-3-fluoroprop-2-en-1-yl]-4-(5-[(1-methyl-1H-imidazol-5-yl)ethynyl]thiophen-2-ylmethyl)-2,4-dihydro-3H-1,2,4-triazol-3-one hydrochloride], the IC50 on recombinant human VAP-1 is 0.5 nM; in experiment [1] it was 440 nM; in experiment [2] it was 1500 nM; in experiment [3] it was 57400 nM.

Consider `CN(C)c1ncc(-c2ccc(Cn3cnn(C/C(=C/F)CN)c3=O)s2)cn1` [Example 55, 2-[(2E)-2-(aminomethyl)-3-fluoroprop-2-en-1-yl]-4-(5-[2-(dimethylamino)pyrimidin-5-yl]thiophen-2-ylmethyl)-2,4-dihydro-3H-1,2,4-triazol-3-one hydrochloride], for which the IC50 on recombinant human VAP-1 was 0.5 nM; in experiment [1] it was 6400 nM; in experiment [2] it was 180 nM; in experiment [3], > 100000 nM.
